pEC50: −log10 of the molar value. Values after ≈ are worked out from the molar mass of the structure shown. Read-outs that look alike come from different tables or passages of the source. Starred links: 1 amine or outer side, 2 acyl side, 3 side chain; linkers in the order of their positions; H or OH if unused. Positions of bridges follow the written chain, without caps; N, C: chain ends. Residues, ends and D or L forms follow the SMILES beside them. *: point of attachment. C20 diacid = O=C(O)CCCCCCCCCCCCCCCCCCC(=O)*; γGlu = O=C(O)[C@H](CCC(=O)[*:2])N[*:1]
Experiments:
[1] = Assay (III) ThT fibrillation assay for physical stability; type: physicochemical; details: ThT fibrillation assay
Outline: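 Freshly prepared formulations, pH-adjusted, with 1 μM ThT; four or eight replicates incubated at 37 °C under 960 rpm orbital shaking. Fluorescence (ex 444/em 485 nm) read every 20 min; […]. Peptide concentration measured by RP-HPLC before and after the run.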

[2] = Assay (IV) determination of solubility; type: physicochemical
Outline: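 Stock ~500 nmol/ml in water; 1:1 with 100 mM buffer, pH 3.0–8.0 (glycylglycine ≤5.0, bistrispropane ≥6.0); 18 h RT; spin; HPLC quantitation of soluble polypeptide.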

[3] = molecular target: T1, human amylin receptor (amylin 3(a) receptor: human calcitonin receptor + RAMP-3) (Homo sapiens, UniProt O60896+P30988); assay: Assay (II)a functional CRE-luciferase assay, human amylin receptor; type: cell-based; details: Table 2; BHK amylin 3(a)-receptor/CRE-luc cells
T1 construct: expressed in transfected cells; host or cells: BHK570
T1 sequence (P30988 25-474): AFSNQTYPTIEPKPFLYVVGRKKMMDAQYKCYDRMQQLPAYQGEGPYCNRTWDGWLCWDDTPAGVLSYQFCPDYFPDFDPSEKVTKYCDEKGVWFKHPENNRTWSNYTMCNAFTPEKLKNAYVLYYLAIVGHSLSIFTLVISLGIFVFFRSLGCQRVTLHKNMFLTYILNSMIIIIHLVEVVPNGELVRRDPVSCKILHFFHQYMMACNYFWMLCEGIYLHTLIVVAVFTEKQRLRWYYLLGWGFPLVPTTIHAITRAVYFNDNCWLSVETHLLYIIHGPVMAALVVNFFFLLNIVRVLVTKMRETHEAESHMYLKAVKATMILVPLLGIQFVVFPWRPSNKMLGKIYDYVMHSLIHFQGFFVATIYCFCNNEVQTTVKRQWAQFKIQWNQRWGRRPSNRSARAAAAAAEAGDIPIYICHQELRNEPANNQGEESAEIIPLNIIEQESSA
T1 sequence (O60896 24-148 partner): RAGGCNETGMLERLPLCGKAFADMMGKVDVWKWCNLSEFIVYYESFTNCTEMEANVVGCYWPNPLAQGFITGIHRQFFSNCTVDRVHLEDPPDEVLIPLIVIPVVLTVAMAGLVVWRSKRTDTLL

[4] = molecular target: T2, human calcitonin receptor (Homo sapiens, UniProt P30988); assay: Assay (II)a functional CRE-luciferase assay, human calcitonin receptor; type: cell-based; details: Table 7; human calcitonin (CTa) receptor
T2 construct: expressed in transfected cells; host or cells: BHK570
T2 sequence (P30988 25-474): T1 sequence (P30988 25-474)

[5] = bistrispropane buffer, pH 6, pH 6.0, read-out: Solubility pH 6.0
[6] = bistrispropane buffer, pH 8, pH 8.0, read-out: Solubility pH 8.0
[7] = glycylglycine buffer, pH 3, pH 3.0, read-out: Solubility pH 3.0
[8] = glycylglycine buffer, pH 4, pH 4.0, 18 hours at room temperature, Table 2, read-out: Solubility pH 4.0
[9] = glycylglycine buffer, pH 4, pH 4.0, read-out: Solubility pH 4.0
[10] = glycylglycine buffer, pH 5, pH 5.0, read-out: Solubility pH 5.0

SMILES	ThT pH 4.0 lag time (h) [1] [h]	solubility at 18 h [2, 5] [µM]	solubility at 18 h ([2]; bistrispropane buffer, pH 6.5, pH 6.5, read-out: Solubility pH 6.5) [µM]	solubility at 18 h [2, 6] [µM]	solubility at 18 h [2, 7] [µM]	solubility at 18 h [2, 8] [µM]	solubility at 18 h [2, 9] [µM]	solubility at 18 h [2, 10] [µM]	pEC50 [3]	pEC50 [4]	solubility at 18 h ([2]; 18 h, pH 7, read-out: Solubility pH 7.0) [µM]	solubility at 18 h ([2]; 18 h, pH 7.5, read-out: Solubility pH 7.5) [µM]	solubility at 18 h ([2]; pH 3, Solubility pH 3.0) [µM]	solubility at 18 h ([2]; pH 4, Solubility pH 4.0) [µM]	solubility at 18 h ([2]; pH 4, Solubility pH 4.0 (μM)) [µM]	solubility at 18 h ([2]; pH 5, Solubility pH 5.0) [µM]	solubility at 18 h ([2]; pH 6, Solubility pH 6.0) [µM]	solubility at 18 h ([2]; pH 6.5, Solubility pH 6.5) [µM]	solubility at 18 h ([2]; pH 8, Solubility pH 8.0) [µM]	solubility at 18 h ([2]; bistrispropane buffer, pH 7.5, pH 7.5, read-out: Solubility pH 7.5) [µM]
CC[C@H](C)[C@H](NC(=O)[C@@H]1CCCN1C(=O)CNC(=O)[C@H](Cc1ccccc1)NC(=O)[C@H](CC(N)=O)NC(=O)[C@H](CC(N)=O)NC(=O)[C@H](CO)NC(=O)[C@H](CO)NC(=O)[C@H](Cc1c[nH]cn1)NC(=O)[C@H](Cc1c[nH]cn1)NC(=O)[C@H](CC(C)C)NC(=O)[C@H](Cc1ccccc1)NC(=O)[C@H](CCC(=O)O)NC(=O)[C@H](C)NC(=O)[C@H](CC(C)C)NC(=O)[C@H](CCCNC(=N)N)NC(=O)[C@H](CCC(N)=O)NC(=O)[C@@H](NC(=O)[C@H](C)NC(=O)[C@@H]1CSSC[C@H](NC(=O)[C@H](Cc2c[nH]cn2)NC(=O)[C@H](Cc2c[nH]cn2)NC(=O)[C@H](Cc2c[nH]cn2)NC(=O)CC[C@H](NC(=O)CCCCCCCCCCCCCCCCCCC(=O)O)C(=O)O)C(=O)N[C@@H](Cc2c[nH]cn2)C(=O)N[C@@H]([C@@H](C)O)C(=O)N[C@@H](C)C(=O)N[C@@H]([C@@H](C)O)C(=O)N1)[C@@H](C)O)C(=O)N[C@@H](CC(C)C)C(=O)N1CCC[C@H]1C(=O)N[C@@H](Cc1c[nH]cn1)C(=O)N[C@H](C(=O)N[C@@H](CC(N)=O)C(=O)N[C@H](C(=O)NCC(=O)N[C@@H](CO)C(=O)N[C@@H](Cc1c[nH]cn1)C(=O)N[C@H](C(=O)N[C@@H](Cc1ccc(O)cc1)C(N)=O)[C@@H](C)O)C(C)C)[C@@H](C)O [Example 33, N-alpha-[(S)-4-Carboxy-4-(19-carboxynonadecanoylamino)butyryl]-His-His-[His1,His3,Glu14,His17,His29,His35]-pramlintide] ({C20 diacid-γGlu}-HHHCHTATCATQRLAEFLHHSSNNFGPILPHTNVGSHTY-NH2; disulfide 4-9 (inferred); C-terminus assumed)	10	> 200	17 (≈ 82 µg/mL)	16 (≈ 77.2 µg/mL)	> 200	> 200	> 200	> 200	8.99	9.32										
CC[C@H](C)[C@H](NC(=O)[C@@H]1CCCN1C(=O)CNC(=O)[C@H](Cc1ccccc1)NC(=O)[C@H](CC(N)=O)NC(=O)[C@H](CC(N)=O)NC(=O)[C@H](CO)NC(=O)[C@H](CO)NC(=O)[C@H](Cc1c[nH]cn1)NC(=O)[C@H](Cc1c[nH]cn1)NC(=O)[C@H](CC(C)C)NC(=O)[C@H](Cc1ccccc1)NC(=O)[C@H](CCC(=O)O)NC(=O)[C@H](C)NC(=O)[C@H](CC(C)C)NC(=O)[C@H](CCCNC(=N)N)NC(=O)[C@H](CCC(N)=O)NC(=O)[C@@H](NC(=O)[C@H](C)NC(=O)[C@@H]1CSSC[C@H](NC(=O)[C@H](Cc2c[nH]cn2)NC(=O)[C@H](Cc2c[nH]cn2)NC(=O)[C@H](Cc2c[nH]cn2)NC(=O)CC[C@H](NC(=O)CCCCCCCCCCCCCCCCCCC(=O)O)C(=O)O)C(=O)N[C@@H](CC(N)=O)C(=O)N[C@@H]([C@@H](C)O)C(=O)N[C@@H](C)C(=O)N[C@@H]([C@@H](C)O)C(=O)N1)[C@@H](C)O)C(=O)N[C@@H](CC(C)C)C(=O)N1CCC[C@H]1C(=O)N[C@@H](Cc1c[nH]cn1)C(=O)N[C@H](C(=O)N[C@@H](CC(N)=O)C(=O)N[C@H](C(=O)NCC(=O)N[C@@H](CO)C(=O)N[C@@H](Cc1c[nH]cn1)C(=O)N[C@H](C(=O)N[C@@H](Cc1ccc(O)cc1)C(N)=O)[C@@H](C)O)C(C)C)[C@@H](C)O [Example 34, N-alpha-[(S)-4-Carboxy-4-(19-carboxynonadecanoylamino)butyryl]-His-His-[His1,Glu14,His17,His29,His35]-pramlintide] ({C20 diacid-γGlu}-HHHCNTATCATQRLAEFLHHSSNNFGPILPHTNVGSHTY-NH2; disulfide 4-9 (inferred))	13								9.57	9.70	0	0	> 200	> 200	> 200	> 200	> 200	4 (≈ 19.2 µg/mL)	13 (≈ 62.4 µg/mL)	
CC[C@H](C)[C@H](NC(=O)[C@@H]1CCCN1C(=O)CNC(=O)[C@H](Cc1ccccc1)NC(=O)[C@H](CC(N)=O)NC(=O)[C@H](CC(N)=O)NC(=O)[C@H](CO)NC(=O)[C@H](CO)NC(=O)[C@H](Cc1c[nH]cn1)NC(=O)[C@H](Cc1c[nH]cn1)NC(=O)[C@H](CC(C)C)NC(=O)[C@H](Cc1ccccc1)NC(=O)[C@H](CCC(=O)O)NC(=O)[C@H](C)NC(=O)[C@H](CC(C)C)NC(=O)[C@H](CCCNC(=N)N)NC(=O)[C@H](CCC(N)=O)NC(=O)[C@@H](NC(=O)[C@H](C)NC(=O)[C@@H]1CSSC[C@H](NC(=O)[C@H](Cc2c[nH]cn2)NC(=O)[C@H](Cc2c[nH]cn2)NC(=O)[C@H](Cc2c[nH]cn2)NC(=O)CC[C@H](NC(=O)CCCCCCCCCCCCCCCCCCC(=O)O)C(=O)O)C(=O)N[C@@H](Cc2c[nH]cn2)C(=O)N[C@@H]([C@@H](C)O)C(=O)N[C@@H](C)C(=O)N[C@@H]([C@@H](C)O)C(=O)N1)[C@@H](C)O)C(=O)N[C@@H](CC(C)C)C(=O)N1CCC[C@H]1C(=O)N1CCC[C@H]1C(=O)N[C@H](C(=O)N[C@@H](CC(N)=O)C(=O)N[C@H](C(=O)NCC(=O)N[C@@H](CO)C(=O)N[C@@H](CC(N)=O)C(=O)N[C@H](C(=O)N[C@@H](Cc1ccc(O)cc1)C(N)=O)[C@@H](C)O)C(C)C)[C@@H](C)O [Example 35, N-alpha-[(S)-4-Carboxy-4-(19-carboxynonadecanoylamino)butyryl]-His-His-[His1,His3,Glu14,His17]-pramlintide] ({C20 diacid-γGlu}-HHHCHTATCATQRLAEFLHHSSNNFGPILPPTNVGSNTY-NH2; disulfide 4-9)	1.3	17 (≈ 81 µg/mL)		66 (≈ 314 µg/mL)	> 200	> 200	> 200	194 (≈ 924 µg/mL)	9.54	9.10										9 (≈ 42.9 µg/mL)
